Marks after values point to notes of the source that are not given here.
Tests used:
[1] = test system: carrageenan-induced paw swelling; experiment: Carrageenan-induced paw edema in rats; format: in vivo, male SD rats
Protocol: FIG. 6: Intravenous CR845 Produces Dose-Dependent Inhibition of Carrageenan-Induced Paw Edema Formation in Rats: Chart showing paw volume after administration of vehicle alone, or vehicle plus 0.1, 0.3 or 1.0 mg/kg CR845.
In a rat model of inflammatory disease, intraplantar injection of carrageenan in one hind paw is commonly used to produce acute inflammation, resulting in the swelling of the inoculated paw (Stein, Millan et al. 1988). Animals were administered CR845 IV (tail vein, 1 mL/kg) 30 min prior to intraplantar carrageenan administration (100 µL 2% carrageenan into left hind paw; n=6/group). Paw volumes were assessed 3.5 hr post treatment (i.e., 3 hr post-carrageenan injection).

LPS-induced TNF release = experiment: LPS-induced serum TNF-alpha in mice (ELISA); format: in vivo, female Balb/c mice; conditions: 3 and 10 mg/kg SC, 30 min before LPS 1 mg/kg IP, serum 2 hours post-LPS
Protocol: FIG. 5 Reduction in LPS-induced TNF release in Mice Pretreated with SC CR845 at 1, 3 and 10 mg/kg; and separately showing a comparison of the effect of prednisone as compared with vehicle alone.
Thirty minutes later, mice were injected IP with the bacterial lipopolysaccharide (LPS, 1 mg/kg) and serum samples collected 2 hours post-LPS treatment (n = 8/group). TNF-alpha levels in serum were determined by ELISA.

[2] = test system: human rheumatoid arthritis (RA) synoviocytes; experiment: TNF-alpha release from human rheumatoid arthritis synoviocytes stimulated with interferon-gamma and anti-CD40 antibody; conditions: 48 hour period
Protocol: Concentrations of TNF-alpha are then measured in tissue culture supernatants by multiplex immunoassay.

[3] = test system: Human monocyte-derived macrophages; experiment: Cytokine release from LPS/IFN-γ stimulated human monocyte-derived macrophages (multiplex immunoassay); format: cell-based
Protocol: Human monocyte-derived macrophages were stimulated with lipopolysaccharide (LPS) and interferon gamma (IFN-γ) in the presence and absence of CR845 or interleukin-10 (IL-10; 10 ng/mL). Cytokine release in the 18-hour supernatants was measured by multiplex immunoassay (N=4 donors per condition, with assays run in triplicate), with results expressed as mean cytokine release (± SEM) following stimulation with LPS and IFN-γ. […] The minimum effective concentration was 2.0 nM, which was the lowest concentration tested (see Table 1).
Statistical comparisons: *, P<0.05; **, P<0.01; ***, P<0.001 compared with LPS/IFN-γ alone; ##, P<0.001 compared with LPS/IFN-γ + CR845 at 50 nM §, P<0.05 compared with LPS/IFN-γ + CR845 at 50 nM; ¶, P<0.005 compared with LPS/IFN-γ; ¶¶, P<0.001 compared with LPS/IFN-γ

[4] = test system: LPS-Induced Cytokine Release; experiment: LPS-induced cytokine release in mice (Luminex); format: in vivo, female Balb/c mice; conditions: 30 min before LPS 1 mg/kg IP, serum 2 hr post-LPS
Source text: Data were summarized as percent reduction from vehicle-treated controls (n = 8/group). (*p<0.05 vs. vehicle; unpaired t-test).

[5] = LPS/IFNγ stimulated, CR845 50 nM, 18-hour supernatant, mean (SEM)
[6] = LPS/IFNγ stimulated, nor-BNI 10 nM alone, mean (SEM)

CC(C)C[C@@H](NC(=O)[C@@H](Cc1ccccc1)NC(=O)[C@H](N)Cc1ccccc1)C(=O)N[C@H](CCCCN)C(=O)N1CCC(N)(C(=O)O)CC1 [CR845, D-Phe-D-Phe-D-Leu-D-Lys-[ω(4-aminopiperidine-4carboxylic acid)]-OH]
minimum effective IV dose for reduction of carrageenan-induced paw swelling ([1]; IV 30 min prior to carrageenan, paw volume at 3.5 hr post-injection): 0.3 mg/kg
carrageenan-induced paw swelling ([1]; IV, 0.1, 0.3 or 1.0 mg/kg, vs. vehicle): significantly reduces carrageenan-induced paw swelling
serum TNF-alpha suppression (LPS-induced TNF release): dose-dependent suppression of TNF-alpha that is statistically significant
TNF-alpha release (CD-40/interferon-gamma stimulated release standardized to 100) ([2]; 0.1 nM): 20
TNF-alpha release (CD-40/interferon-gamma stimulated release standardized to 100) ([2]; 0.3 nM): -25
IL-6 release ([3]; LPS/IFNγ stimulated, CR845 10 nM, 18-hour supernatant, mean (SEM)): 398.0 (108.4) pg/mL
IL-6 release [3, 5]: 563.7 (53.9) pg/mL
IL-8 release [3, 5]: 1211 (56.7) pg/mL
minimum effective concentration for reduction of cytokine secretion ([3]; lowest concentration tested): 2.0 nM
secretion of TNF, IL-1β, IL-6, IL-8 and GCSF following stimulation with LPS and IFN-γ ([3]; primary human macrophages, vs. vehicle): significantly reduced
GM-CSF % Inhibition ([4]; CR845 10 mg/kg SC): 7%
IL-1α % Inhibition ([4]; CR845 10 mg/kg SC): -37%
IL-1β % Inhibition ([4]; CR845 10 mg/kg SC): 26* %
IL-2 % Inhibition ([4]; CR845 10 mg/kg SC): 23* %
IL-4 % Inhibition ([4]; CR845 10 mg/kg SC): 21%
IL-6 % Inhibition ([4]; CR845 10 mg/kg SC): -10%
IL-10 % Inhibition ([4]; CR845 10 mg/kg SC): 26%
IL-12 (p40/p70) % Inhibition ([4]; CR845 10 mg/kg SC): 23* %
MCP-1 % Inhibition ([4]; CR845 10 mg/kg SC): -11%
MIP-1α % Inhibition ([4]; CR845 10 mg/kg SC): 19%
MIP-1β % Inhibition ([4]; CR845 10 mg/kg SC): 19* %
TNFα % Inhibition ([4]; CR845 10 mg/kg SC): 47* %

C[C@]12C=CC(=O)C=C1CC[C@@H]1[C@@H]2[C@@H](O)C[C@@]2(C)[C@H]1CC[C@]2(O)C(=O)CO [Prednisolone, prednisolone]
IL-1α % Inhibition ([4]; Prednisolone 3 mg/kg SC): 50* %
IL-1β % Inhibition ([4]; Prednisolone 3 mg/kg SC): 39* %
IL-2 % Inhibition ([4]; Prednisolone 3 mg/kg SC): 24* %
IL-4 % Inhibition ([4]; Prednisolone 3 mg/kg SC): 41* %
IL-6 % Inhibition ([4]; Prednisolone 3 mg/kg SC): -2%
IL-10 % Inhibition ([4]; Prednisolone 3 mg/kg SC): 59* %
IL-12 (p40/p70) % Inhibition ([4]; Prednisolone 3 mg/kg SC): 45* %
MCP-1 % Inhibition ([4]; Prednisolone 3 mg/kg SC): -14%
MIP-1α % Inhibition ([4]; Prednisolone 3 mg/kg SC): 35* %
MIP-1β % Inhibition ([4]; Prednisolone 3 mg/kg SC): 19* %
TNFα % Inhibition ([4]; Prednisolone 3 mg/kg SC): 64* %

CCCC1O[C@@H]2C[C@H]3[C@@H]4CCC5=CC(=O)C=C[C@]5(C)[C@H]4[C@@H](O)C[C@]3(C)[C@]2(C(=O)CO)O1 (stereo partly shown) [budesonide]
TNF-alpha release (CD-40/interferon-gamma stimulated release standardized to 100) ([2]; positive control, concentration not given): -25

Oc1ccc2c3c1O[C@H]1c4[nH]c5c(c4C[C@@]4(O)[C@@H](C2)N(CC2CC2)CC[C@]314)C[C@@]1(O)[C@H]2Cc3ccc(O)c4c3[C@@]1(CCN2CC1CC1)[C@H]5O4 [nor-BNI]
G-CSF release [3, 6]: 1214 (29.9) pg/mL
IL-1 release [3, 6]: 39.9 (1.1) pg/mL
IL-6 release [3, 6]: 803.9 (0.6) pg/mL
IL-8 release [3, 6]: 1595 (13.3) pg/mL
TNF release [3, 6]: 7186 (174.8) pg/mL
effect of nor-BNI on the cytokine-reducing effect of CR845 ([3]; selective kappa opioid antagonist added to CR845): blocked
